Measurements reported in US20140275276A1, “PHARMACEUTICAL COMPOSITION OF S-KETAMINE HYDROCHLORIDE” (JANSSEN PHARMACEUTICA NV, priority 2013, published 2014).

Key:
Type in all cases: cell-based
Escherichia coli = assay: Microbial challenge test / Full AET challenge test; conditions: spike 10^5-10^6 CFU/ml, room temperature
From the text: (§1) A challenge test was initiated to investigate whether the formulation could prevent microorganisms from proliferating. The challenge test consisted of challenging the formulation with a prescribed inoculum of microorganisms. The inoculated formulation was then stored at room temperature and at specified time intervals a sample was withdrawn to count the microorganisms in the sample.
(§2) The formulations listed in Table 3 were additionally subjected to a Full AET challenge, with results for the individual formulations are shown in Tables 5-8, below. Additionally, Table 9 below, provides results for a Full AET challenge of a reference formulation containing 0.00 mg/mL S-ketamine hydrochloride, denatonium benzoate (to mimic the taste of the S-ketamine HCl formulation(s)), and adjusted to pH 5.21 with 1N NaOH.

Staphylococcus aureus = assay: Microbial challenge test / Full AET challenge test; conditions: spike 10^5-10^6 CFU/ml, room temperature
From the text: as §1, §2

Candida albicans = assay: Microbial challenge test / Full AET challenge test; conditions: spike 10^5-10^6 CFU/ml, room temperature
From the text: as §1, §2

Aspergillus brasiliensis = assay: Microbial challenge test / Full AET challenge test; conditions: spike 10^5-10^6 CFU/ml, 28 days of incubation at room temperature
From the text: as §1, §2

Pseudomonas aeruginosa = assay: Microbial challenge test / Full AET challenge test; conditions: spike 10^5-10^6 CFU/ml, room temperature
From the text: as §1, §2

[1] = tested on: environmental isolate Staphylococcus haemolyticus; assay: Microbial challenge test; conditions: spike 10^5-10^6 CFU/ml, room temperature
From the text: as §1

[2] = tested on: environmental Micrococcus Luteus; assay: Full AET challenge test; conditions: spike 10^5-10^6 CFU/ml, room temperature
From the text: as §1, §2

For CN[C@]1(c2ccccc2Cl)CCCCC1=O.Cl [S-ketamine hydrochloride, (S)-2-(2-chlorophenyl)-2-(methylamino)cyclohexanone hydrochloride], the “Antimicrobial effect in words (change of the original spike)” value (Escherichia coli) was “strong antimicrobial properties”, the “Antimicrobial effect in words (change of the original spike)” value (Staphylococcus aureus) was “strong antimicrobial properties” and the “Antimicrobial effect in words (change of the original spike)” value (Candida albicans) was “strong antimicrobial properties”. The “Antimicrobial effect in words (change of the original spike)” value (Aspergillus brasiliensis) was “some inhibitory activity”, the “Antimicrobial effect in words (change of the original spike)” value (Pseudomonas aeruginosa) was “strong antimicrobial properties” and the “Antimicrobial effect in words (change of the original spike)” value [1] was “strong antimicrobial properties”. For the same compound, the “Antimicrobial effect in words (change of the original spike)” value [2] was “strong antimicrobial properties”.
